Data set [1] is described as follows: Half-life in dog at 0.5 mg/kg, iv. The note with it: in vivo. Format: ADME, organism-based, Canis lupus familiaris.
Data set [2] is described as follows: Lipophilicity, log D of the compound at pH 7.4 by HPLC analysis. It is filed as physicochemical. To be noted: buffer.
A further data set concerns the target T1, Orexin receptor type 2 (Homo sapiens, UniProt O43614).
T1 sequence (O43614 whole entry): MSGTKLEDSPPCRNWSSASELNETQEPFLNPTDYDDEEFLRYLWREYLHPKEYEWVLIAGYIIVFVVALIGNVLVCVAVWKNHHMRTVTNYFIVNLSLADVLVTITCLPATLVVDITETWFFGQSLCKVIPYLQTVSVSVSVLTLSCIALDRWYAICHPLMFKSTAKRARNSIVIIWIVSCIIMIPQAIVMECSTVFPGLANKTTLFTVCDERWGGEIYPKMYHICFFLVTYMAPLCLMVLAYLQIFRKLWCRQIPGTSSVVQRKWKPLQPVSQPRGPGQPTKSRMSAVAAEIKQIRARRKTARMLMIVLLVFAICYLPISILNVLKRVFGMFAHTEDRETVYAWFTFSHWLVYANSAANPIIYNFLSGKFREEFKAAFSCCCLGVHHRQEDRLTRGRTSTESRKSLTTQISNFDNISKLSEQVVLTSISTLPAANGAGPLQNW
The data set is described as follows: Antagonist activity at human recombinant OX2R expressed in CHOK1 cells assessed as inhibition of orexin A-induced intracellular Ca2+ release preincubated for 30 mins followed by orexin-A stimulation by Fluo-4AM dye based fluorescence analysis. Format: functional, cell-based, CHO-K1.

The nature of data set [3]: Half-life in Sprague-Dawley rat at 2 mg/kg, iv. It is filed as ADME, organism-based. To be noted: in vivo.
In data set [4] the target is T2, Orexin/Hypocretin receptor type 1 (Homo sapiens, UniProt O43613).
T2 sequence (O43613 whole entry): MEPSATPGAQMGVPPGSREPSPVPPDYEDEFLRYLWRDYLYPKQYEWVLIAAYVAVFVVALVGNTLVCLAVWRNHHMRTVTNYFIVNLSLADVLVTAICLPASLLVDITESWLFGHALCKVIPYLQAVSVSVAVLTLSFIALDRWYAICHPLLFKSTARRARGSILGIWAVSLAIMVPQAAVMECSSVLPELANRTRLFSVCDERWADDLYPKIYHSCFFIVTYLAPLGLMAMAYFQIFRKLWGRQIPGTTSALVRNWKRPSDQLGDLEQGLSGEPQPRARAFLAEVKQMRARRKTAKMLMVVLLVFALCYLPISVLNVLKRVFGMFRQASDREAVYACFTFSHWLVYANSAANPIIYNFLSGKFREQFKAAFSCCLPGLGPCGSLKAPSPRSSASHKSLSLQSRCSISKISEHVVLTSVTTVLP
Put plainly: Antagonist activity at human recombinant OX1R expressed in CHOK1 cells assessed as inhibition of orexin A-induced intracellular Ca2+ release preincubated for 30 mins followed by orexin-A stimulation by Fluo4-AM dye based fluorescence analysis. Format: functional, cell-based, CHO-K1.

For data set [5], the system named is Rattus norvegicus. Put plainly: Sleep-promoting activity in ip dosed Wistar rat by polysomnography. The note with it: read-out: MED. Format: functional.
Data set [6] in a line: Half-life in human. It is filed as ADME.
The nature of data set [7]: Half-life in human at 10 to 80 mg, po administered as single dose. Format: ADME, organism-based. To be noted: in vivo.
Data set [8] is described as follows: Half-life in human plasma at 40 mg,po administered once daily. Format: ADME, cell-free.
Data set [9] concerns Rattus norvegicus. The data set is described as follows: Sleep-promoting activity in po dosed Wistar rat administered 10 mins prior to the onset of dark period measured every 20s for 2 hrs by polysomnography. The note with it: read-out: MED. It is filed as functional.
The target in data set [10] is T3, Orexin/Hypocretin receptor type 1 (Rattus norvegicus) (UniProt P56718).
T3 sequence (whole entry): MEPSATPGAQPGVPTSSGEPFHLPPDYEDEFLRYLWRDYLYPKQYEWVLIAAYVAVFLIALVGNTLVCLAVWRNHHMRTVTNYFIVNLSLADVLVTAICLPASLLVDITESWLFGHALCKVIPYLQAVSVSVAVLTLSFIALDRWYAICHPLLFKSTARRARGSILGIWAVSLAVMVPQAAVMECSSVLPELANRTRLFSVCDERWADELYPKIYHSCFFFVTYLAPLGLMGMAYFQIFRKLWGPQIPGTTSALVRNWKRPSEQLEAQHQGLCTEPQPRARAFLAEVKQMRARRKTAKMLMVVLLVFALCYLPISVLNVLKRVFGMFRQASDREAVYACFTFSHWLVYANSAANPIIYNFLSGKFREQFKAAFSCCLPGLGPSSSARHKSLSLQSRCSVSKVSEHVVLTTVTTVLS
Put plainly: Antagonist activity at rat recombinant OX1R expressed in CHOK1 cells assessed as inhibition of orexin A-induced intracellular Ca2+ release preincubated for 30 mins followed by orexin-A stimulation by Fluo4-AM dye based fluorescence analysis. Format: functional, cell-based. To be noted: CHO-K1.

The nature of data set [11]: Clearance in Sprague-Dawley rat at 1 mg/kg or 2 mg/kg, iv. It is filed as ADME, organism-based. To be noted: in vivo.
Data set [12] is described as follows: Oral bioavailability in dog at 3 mg/kg. It is filed as ADME, organism-based, Canis lupus familiaris. The note with it: in vivo.
Data set [13] in a line: Volume of distribution in Sprague-Dawley rat at 1 mg/kg or 2 mg/kg, iv. Format: ADME, organism-based. The note with it: in vivo.
The nature of data set [14]: Plasma protein binding in Sprague-Dawley rat at 2 ug/mL. To be noted: read-out: PPB (converted). It is filed as ADME, cell-free.
A short description of data set [15]: Chemical stability of the compound in JP 1st fluid at pH 1.2 at 37 degC incubated for 24 hrs. It is filed as physicochemical. To be noted: buffer, pH 1.2, 24 h.
The target of data set [16] is T4, Orexin receptor type 2 (Rattus norvegicus) (UniProt P56719).
T4 sequence (whole entry): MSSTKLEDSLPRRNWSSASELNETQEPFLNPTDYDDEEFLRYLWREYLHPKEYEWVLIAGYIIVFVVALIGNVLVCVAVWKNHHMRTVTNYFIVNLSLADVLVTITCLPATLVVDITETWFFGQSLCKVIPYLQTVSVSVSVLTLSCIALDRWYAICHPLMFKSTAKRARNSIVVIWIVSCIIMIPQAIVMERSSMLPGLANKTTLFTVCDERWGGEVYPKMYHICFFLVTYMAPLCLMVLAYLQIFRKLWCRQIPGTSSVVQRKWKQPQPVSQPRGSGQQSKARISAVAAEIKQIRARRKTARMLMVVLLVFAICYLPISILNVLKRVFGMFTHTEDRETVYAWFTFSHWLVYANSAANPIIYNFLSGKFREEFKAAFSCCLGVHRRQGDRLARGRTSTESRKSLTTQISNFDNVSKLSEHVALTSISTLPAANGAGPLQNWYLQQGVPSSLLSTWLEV
The data set is described as follows: Antagonist activity at rat recombinant OX2R expressed in CHOK1 cells assessed as inhibition of orexin A-induced intracellular Ca2+ release preincubated for 30 mins followed by orexin-A stimulation by Fluo4-AM dye based fluorescence analysis. Format: functional, cell-based. The note with it: CHO-K1.

The target in a further data set is P-gp (ABCB1) (Homo sapiens, UniProt P08183). The data set is described as follows: Substrate activity at P-gp (unknown origin) assessed as efflux ratio. Format: ADME. To be noted: not told.
Data set [17] is described as follows: Tmax in dog at 3 mg/kg, po. It is filed as ADME, organism-based, Canis lupus familiaris. The note with it: in vivo.
Data set [18] is described as follows: Volume of distribution in dog at 0.5 mg/kg, iv. The note with it: in vivo. It is filed as ADME, organism-based, Canis lupus familiaris.
The nature of data set [19]: Drug metabolism in rat liver microsomes incubated for 15 mins. Format: ADME, Microsome. The note with it: read-out: Drug metabolism.
A short description of data set [20]: Clearance in dog at 0.5 mg/kg, iv. Format: ADME, organism-based, Canis lupus familiaris. The note with it: in vivo.
Data set [21] is described as follows: Drug metabolism in dog liver microsomes incubated for 15 mins. To be noted: read-out: Drug metabolism. It is filed as ADME, Canis lupus familiaris, Microsome.
Data set [22] can be described thus: Oral bioavailability in Sprague-Dawley rat at 3 mg/kg. It is filed as ADME, organism-based. To be noted: in vivo.
Data set [23] in a line: Drug uptake in cerebrospinal fluid in Sprague-Dawley rat at 3 mg/kg, po measured after 1 hr. Format: ADME, organism-based. To be noted: read-out: Drug uptake.
Data set [24] can be described thus: Half-life in Sprague-Dawley rat at 1 mg/kg or 2 mg/kg, iv. Format: ADME, organism-based. To be noted: in vivo.
The test system of data set [25] is Rattus norvegicus. Put plainly: Sleep-promoting activity in po dosed Wistar rat assessed as increase in total sleep administered 10 mins prior to the onset of dark period measured every 20s for 2 hrs by polysomnography. It is filed as functional, organism-based.
Data set [26] can be described thus: Drug metabolism in human liver microsomes incubated for 15 mins. The note with it: read-out: Drug metabolism. It is filed as ADME, Microsome.
Data set [27] can be described thus: Ratio of drug level in cerebrospinal fluid to plasma in Sprague-Dawley rat at 3 mg/kg, po. It is filed as ADME, organism-based. To be noted: csf.
The nature of data set [28]: Ratio of drug level in brain to plasma in Sprague-Dawley rat at 3 mg/kg, po. Format: ADME, organism-based.
Data set [29] deals with Rattus norvegicus. Put plainly: Sleep-promoting activity in Wistar rat assessed as fast sleep onset latency at 1 to10 mg/kg, po administered 10 mins prior to the onset of dark period measured every 20s for 2 hrs by polysomnography. It is filed as functional, organism-based.
The nature of data set [30]: Plasma protein binding in dog at 2 ug/mL. To be noted: read-out: PPB (converted). Format: ADME, cell-free, Canis lupus familiaris.
A short description of data set [31]: Tmax in Sprague-Dawley rat at 3 mg/kg, po. It is filed as ADME, organism-based. To be noted: in vivo.

5 compounds from ChEMBL document CHEMBL4622874, “Discovery of ORN0829, a potent dual orexin 1/2 receptor antagonist for the treatment of insomnia” (Bioorg Med Chem, 2020) can be followed below.

Structures are written as SMILES. pIC50: −log10 of the molar value. Calls of active or inactive are those of the source. The rule behind the calls is not given here.

Sequence of P-gp (ABCB1) (P08183 whole entry): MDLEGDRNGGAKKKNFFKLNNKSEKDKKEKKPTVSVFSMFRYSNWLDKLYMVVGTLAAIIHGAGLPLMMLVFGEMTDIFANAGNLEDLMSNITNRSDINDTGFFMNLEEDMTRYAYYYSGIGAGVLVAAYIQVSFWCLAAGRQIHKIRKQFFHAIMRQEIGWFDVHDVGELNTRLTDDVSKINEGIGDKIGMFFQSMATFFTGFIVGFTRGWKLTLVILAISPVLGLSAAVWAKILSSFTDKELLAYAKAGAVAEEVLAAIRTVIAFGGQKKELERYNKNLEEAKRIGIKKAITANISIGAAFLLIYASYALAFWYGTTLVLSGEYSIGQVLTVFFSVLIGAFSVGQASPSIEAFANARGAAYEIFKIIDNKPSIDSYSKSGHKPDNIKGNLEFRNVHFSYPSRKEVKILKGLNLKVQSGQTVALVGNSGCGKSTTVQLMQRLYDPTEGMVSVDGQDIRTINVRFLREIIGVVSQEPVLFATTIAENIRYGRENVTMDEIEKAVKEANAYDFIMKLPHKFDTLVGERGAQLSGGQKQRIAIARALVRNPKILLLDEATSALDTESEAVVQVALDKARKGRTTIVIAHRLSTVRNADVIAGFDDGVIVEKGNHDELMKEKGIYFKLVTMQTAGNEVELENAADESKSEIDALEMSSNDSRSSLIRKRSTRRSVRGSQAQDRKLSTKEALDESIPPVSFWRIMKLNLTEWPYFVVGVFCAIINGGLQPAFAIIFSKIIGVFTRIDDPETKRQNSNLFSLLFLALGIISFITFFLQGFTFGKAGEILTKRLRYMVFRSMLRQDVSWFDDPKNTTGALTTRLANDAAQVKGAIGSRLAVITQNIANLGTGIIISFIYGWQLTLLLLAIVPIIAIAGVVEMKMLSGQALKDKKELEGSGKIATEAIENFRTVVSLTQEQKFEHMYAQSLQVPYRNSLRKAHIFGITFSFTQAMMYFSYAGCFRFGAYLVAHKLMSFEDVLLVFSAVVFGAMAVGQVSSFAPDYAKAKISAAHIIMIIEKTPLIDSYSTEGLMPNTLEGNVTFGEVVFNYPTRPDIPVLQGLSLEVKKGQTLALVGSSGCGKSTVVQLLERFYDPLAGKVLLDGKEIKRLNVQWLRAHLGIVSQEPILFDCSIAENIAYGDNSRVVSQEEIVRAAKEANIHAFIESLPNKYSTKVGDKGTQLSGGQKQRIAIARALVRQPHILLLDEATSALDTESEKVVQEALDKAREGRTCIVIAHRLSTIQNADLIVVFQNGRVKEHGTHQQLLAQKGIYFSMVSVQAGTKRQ

Turning to `CCN(CCn1ccc(-c2ccc(F)cn2)n1)C(=O)c1ccccc1-n1nccn1`, the half-life in data set [1] is 1.07 h; in [3], 0.412 h. This compound also displayed a logD in [2] of 2.53. The pIC50 at Orexin receptor type 2 was 7.41; in data set [4] it was 7.69. For the same compound, in the data set with Rattus norvegicus [5], the minimal effective dose was 3 mg/kg.
As to `COc1ccc(-n2nccn2)c(C(=O)N2CCC[C@@]2(C)c2nc3c(C)c(Cl)ccc3[nH]2)c1` [DARIDOREXANT], the half-life in data set [6] is 6 h.
For `Cc1cc(C)nc(N2CC3CN(C(=O)c4c(F)cccc4-n4nccn4)CC3C2)n1` (configuration not stated) [SELTOREXANT], in data set [7], the half-life was 2 h.
Take `Cc1ccc(-n2nccn2)c(C(=O)N2CCN(c3nc4cc(Cl)ccc4o3)CC[C@H]2C)c1` [SUVOREXANT]: the half-life in data set [8] was 12 h.
Turning to `Cc1ccc(-n2nccn2)c(C(=O)N2CCCO[C@H]2Cn2ccc(-c3ccc(F)cn3)n2)c1`, the minimal effective dose with Rattus norvegicus [9] was determined as 1 mg/kg. The results for the Kb in data set [10] and in [16] were 0.44 nM and 0.8 nM, respectively. Further, the half-life in data set [1] is 1.16 h; in [24] it was 0.238 h. The compound also came in with a logD in [2] of 2.58. Besides, the clearance in [11] is 39.5 mL/min/kg; in data set [20] it was 2.65 mL/min/kg. In addition, the bioavailability in [12] was determined as 61.6%; in data set [22], 5.5%. The figures for the volume of distribution (Vd) in [13] and in data set [18] were 0.853 L/kg and 0.294 L/kg, respectively. Moreover, the fraction unbound at 2 ug/mL in [14] was 0.12; in data set [30], 0.036. In addition, the Stability entry in [15] is reported as “Stable”. Also, the efflux ratio on P-gp (ABCB1) turned out to be 2.43. The Tmax in data set [17] worked out at 0.583 h; in data set [31] it was 0.333 h. The metabolised at 0.25 h in data set [19] is 51%; in [21], 10.5%; in [26] it was 34.4%. Moreover, the pIC50 at Orexin receptor type 2 was 8.90; in data set [4], 8.98. In data set [23], the concentration at 1 h was found to be 2.23 nM. Also, the Activity entry in the data set on Rattus norvegicus [25] was “Dose-dependent effect”. Moreover, the Ratio is 3.1% in [27] and 13.5% in data set [28]. The result with Rattus norvegicus [29] was Active.
